# Earlier results, collected in patent US12458653B2, “Cannabis based therapeutic and method of use” (priority 2018, dated 2025).
# Read-outs that look alike come from different tables or passages of the source.
# Key:
# [1] = test system: chemotherapy-induced nausea and vomiting; conditions: versus available anti-emetic regimens
# [2] = extensive liver metabolism
smiles,measurement,setting,value
CCCCCc1cc(O)c2c(c1)OC(C)(C)[C@@H]1CCC(C(=O)O)=C[C@@H]21 [THC—COOH],peak concentration in the urine,"after 4 hours, smoking approximately 27 mg of Δ9-THC",179.4 ng/mL
same,urinary excretion half-life,after seven days of monitoring,approximately 30 hours
same,time THC-COOH is detectable in plasma,after smoking a cigarette containing 16-34 mg of Δ9-THC,2 to 7 days
same,urinary excretion half-life,after twelve days of monitoring,44 to 60 h
same,initial concentration of THC-COOH in serum,clinical study among 52 volunteers,14 to 49 ng/mL
same,THC-COOH detection time,single chronic user,25 days
CCCCCc1cc(O)c2c(c1)OC(C)(C)[C@@H]1CCC(C)=C[C@@H]21 [Dronabinol],relief of chemotherapy-induced nausea and vomiting,[1],little relief over available anti-emetic regimens
"CCCCCc1cc(O)c2c(c1)OC(C)(C)[C@@H]1CCC(C)=C[C@@H]21 [Δ9-THC, delta-9 tetrahydrocannabinol]",oral bioavailability of Δ9-THC,[2],4-12%
same,half-life,frequent users,120 to 312 h
same,half-life,infrequent user,31.2 h
same,average plasma clearance rate,men,14.9 ± 3.7 L/h
same,plasma clearance rate,naïve cannabis users,approximately 36 L/hour
same,plasma clearance rate,regular cannabis users,60 L/h
same,average plasma clearance rate,women,11.8 ± 3 L/h
CCCCCc1cc(O)c2c(c1)OC(C)(C)[C@@H]1CCC(CO)=C[C@@H]21 [11-OH-THC],peak concentration in the urine,"after 3 hours, smoking approximately 27 mg of Δ9-THC",77.0 ± 329.7 ng/mL
same,peak concentration in the urine,within two hours after smoking approximately 27 mg of Δ9-THC in a cigarette,3.2 to 53.3 ng/mL
